Measured values published in ChEMBL document CHEMBL3507680, “University of Dundee, Gates Library screen for HepG2 cell viability”.

experiment: Human HepG2 cell viability assay in 384 well format; format: toxicity, cell-based; set-up: dose 125 nL, time 70.5 hour; cytotoxicity at 70.5 h: concentration not given beside the values; conditions: HepG2 cells, read-out: Inhibition

Point of comparison: `CNC(=O)Cc1ccc(NC(=O)NC2(c3cccc(F)c3)CC2)cc1`, cytotoxicity at 70.5 h -3.37%. Against it:
- N#Cc1ccccc1NC(=O)c1ccc2c(c1)OCO2 — higher, -0.874%
- O=C(COCC(=O)N(c1ccccc1)c1ccccc1)N1CCOCC1 — lower, -5.79%
- O=C(c1ccnn1COc1ccc(Cl)cc1)N1CCCC1 — higher, -1.93%
- CCNc1nc(N(C)C)nc(-n2cnc(SC)n2)n1 — lower, -12%
- CSc1ncn(-c2nc(NC3CC3)nc(N(C)C)n2)n1 — lower, -25.9%
- CCN(c1ccccc1C(=O)O)S(=O)(=O)c1cccc2cccnc12 — higher, 1.89%
- CCc1oc2ccc(NS(=O)(=O)CC)cc2c1C(=O)OC — lower, -5.49%
- Cc1cc(N2CCC(Cc3cccnc3)CC2)ncn1 — higher, 23.3%
- Cc1cc(N2CCC(Cc3ncccn3)C2)ncn1 (stereo unspecified) — lower, -6.02%
- NC(=O)c1cn[nH]c1C1CCCN1C(=O)c1ccccn1 (stereo unspecified) — lower, -4.23%
- O=C(CO)N1CCCC(c2cc(C(F)(F)F)[nH]n2)C1 (stereo unspecified) — higher, -2.3%
- Cc1n[nH]c(C)c1S(=O)(=O)N1CCC(Oc2ccccc2F)CC1 — lower, -7.37%
- Nc1cc(-c2cncnc2C2CCN(C(=O)c3ccccc3)C2)ccn1 (stereo unspecified) — higher, 2.08%
- O=C(NCC1(O)COCCN(Cc2cccc(O)c2)C1)c1cscn1 (stereo unspecified) — lower, -7.81%
- Cc1cc(-c2ccc(=O)n(C3CCN(S(=O)(=O)N(C)C)CC3)n2)c(C)o1 — higher, 3.38%
- CCS(=O)(=O)N1CCC(n2nc(-c3cc(C)oc3C)ccc2=O)CC1 — higher, 24.5%
- CCN1CCCC1CNCc1cc2ccccc2[nH]c1=O (stereo unspecified) — lower, -5.02%
- COc1cccc(-c2nccc(C3CCCN3C)n2)c1 (stereo unspecified) — higher, 26.3%
- CN1CCCCC1c1ccc(-n2ccnc2)nc1 (stereo unspecified) — higher, -2.08%
- Cc1cc(C)nc(C2CCCN2C(=O)c2cnco2)n1 (stereo unspecified) — higher, 33.6%
- COCCN1CCCC1c1ccnc(-c2ccccc2)n1 (stereo unspecified) — lower, -4.49%
- CCn1cc(S(=O)(=O)N2CCCC3(CC=CNC3=O)C2)cn1 (stereo unspecified) — higher, -0.325%
- COc1ccccc1C1(O)CCCN(C(=O)c2csc(C(C)=O)c2)C1 (stereo unspecified) — higher, -1.27%
- CC(C)c1nc(O)c2nnn(C[C@H]3CCCN(Cc4ccsc4)C3)c2n1 — higher, -1.06%
- CCN1CCCC1CNCc1cc2cc(OC)ccc2[nH]c1=O (stereo unspecified) — higher, -0.0295%
- COc1cccc(CCC2CCCCN2)c1 (stereo unspecified) — higher, 0.0655%
- CC(C)(C)OC(=O)N1CCN(c2cccnc2)CC1C(=O)O (stereo unspecified) — higher, -0.358%
- CN(C)C(=O)c1c[nH]nc1C1CCN(S(=O)(=O)c2ccc(Cl)cc2)CC1 — higher, 17.9%
- CC(=O)N1CCC(c2nccnc2CNC(=O)c2cc[nH]n2)CC1 — lower, -4.85%
- CN(C(=O)c1cc(F)ccc1F)[C@@H]1CC[C@@H](O)[C@@H]1O — higher, -2.95%
- CNC(=O)C1CCCN(C(=O)c2ccccc2-n2cc(CN)cn2)C1 (stereo unspecified) — higher, 2.43%
- CO[C@@H]1CCC[C@@H](N(C)C(=O)c2cc(F)ccc2F)[C@H]1O — higher, -3.32%
- Cc1noc(C)c1CCC(=O)N[C@@H]1CCC[C@@H](Oc2cccnc2)[C@@H]1O — lower, -3.39%
- Cc1noc(C2(C)CCN(C(=O)C(C)C)CC2)n1 — lower, -5.14%
- CCC(CC)N1CCC(c2[nH]ncc2S(C)(=O)=O)C1 (stereo unspecified) — lower, -5.29%
- CN(C)C(=O)C1(C)CN(Cc2cn(C)c3ccccc23)CCO1 (stereo unspecified) — lower, -4.04%
- CC(C)(C)CN1CCC(c2nccnc2Nc2cnccn2)CC1 — higher, -1.64%
- Cc1c(CCC(=O)N2CCCC2c2ccnc(N(C)C)c2)cnn1C (stereo unspecified) — higher, -1.8%
- Cc1cc(CN2CCc3nc(C(C)C)nc(O)c3CC2)c(C)s1 — higher, -0.545%
- NC(=O)c1cn[nH]c1C1CCCN1C(=O)COc1ccccc1 (stereo unspecified) — higher, -3.18%
- CN(C)C(=O)c1c[nH]nc1C1CCN(S(=O)(=O)c2cccc(Cl)c2)CC1 — higher, 9.14%
- O=C(CC1CC1)N1CCC(O)(CN2CCN(c3ccccc3)CC2)C1 (stereo unspecified) — higher, 5.49%
- Cc1nc(C)c(C(=O)N2CCCC2(C)C(=O)NC2CCCC2)s1 (stereo unspecified) — lower, -3.63%
- Cc1ccc(-c2cc(C)nc(C3CCCN3S(C)(=O)=O)n2)cc1 (stereo unspecified) — lower, -8.04%
- O=C(Nc1ccc(Cl)cn1)c1cncc(C2CCNCC2)n1 — lower, -7.54%
- Cc1ccc(-c2nnc(CNC(=O)c3cccnc3)o2)cn1 — lower, -16.3%
- Cc1cncnc1C1CCN(C(=O)CN(C)C)CC1 — lower, -8.84%
- Cc1cc(N(C)C)nc(N2CCn3c(C)nnc3C2)n1 — lower, -17.7%
- CS(=O)(=O)CCN1CCSCC1c1ccc(Cl)cc1 (stereo unspecified) — higher, -1.17%
- CCc1cc(CNC(=O)c2cc(NC(=O)C(C)C)ccc2Cl)[nH]n1 — lower, -9.06%
- CC(C)OCCS(=O)(=O)N1CCN(Cc2ccco2)CC1 — lower, -4.45%
- CNC(=O)Cc1ccc(NC(=O)NCc2nc(C)sc2C)cc1 — higher, 13.2%
- CCN(C)S(=O)(=O)N1CCC(C(O)c2ccc(Cl)cc2)CC1 (stereo unspecified) — lower, -8.06%
- Cc1cn2c(n1)C(CNCc1cnn3ccccc13)CCC2 (stereo unspecified) — lower, -5.6%
- CCS(=O)(=O)Nc1ccc2[nH]c(C3CCC3)nc2c1 — lower, -6.11%
- Cc1cc(N(C)C)nc(N2CCn3c(nnc3C(C)C)C2)n1 — higher, 13.6%
- CC(C)Cc1cc(C(=O)N2CCC(Cc3cnn(C)c3)C2)cc(O)n1 (stereo unspecified) — lower, -11.1%
- CN(CC(=O)N(C)C(c1cccnc1)c1ccc(F)c(F)c1)C1CC1 (stereo unspecified) — higher, 22.6%
- COCCNC(=O)N1CCC(NC(C)C)CC1 — higher, 5.14%
- Cc1oc(C)c(C(=O)Nc2ccccn2)c1C — lower, -10.7%
- O=S(=O)(CCCn1cncn1)Cc1ccccc1Cl — lower, -6.92%
- CN(CCOc1ccccc1Cl)S(=O)(=O)N1CCOCC1 — lower, -7.93%
- CC(NC(=O)c1ccoc1)C(=O)N(C)Cc1ccsc1 (stereo unspecified) — lower, -5.45%
- CCNC(=O)C(C)(C)NC(=O)NCc1cccc(Br)c1 — lower, -8.53%
- COc1cc(C#N)ccc1OCC(=O)N(C1CC1)C(C)c1ccco1 (stereo unspecified) — lower, -9.56%
- COCCNC(=O)N1CCN(C(C)C(=O)NC(C)C)CC1 (stereo unspecified) — lower, -5.13%
- Cc1ccc(=O)n(Cc2nc(C(C)OCC(C)C)no2)n1 (stereo unspecified) — higher, 3.26%
- CC(C)(NS(C)(=O)=O)C(=O)NCc1cccc(Br)c1 — lower, -7.07%
- COCCNC(=O)N1CCN(C(C)C(=O)NC2CCCC2)CC1 (stereo unspecified) — lower, -5.61%
- CCC(CC)c1cc(C(=O)N2CCN(C(C)C(N)=O)CC2)on1 (stereo unspecified) — lower, -7.02%
- CCOc1nnc(CN2CCCC(c3nc4ccccc4[nH]3)C2)s1 (stereo unspecified) — lower, -3.56%
- CN(CC(=O)Nc1cc(-n2nnnc2C2CC2)ccc1F)C1CCC1 — lower, -8.29%
- CN1CCOC(C(=O)Nc2nc(-c3ccc4c(c3)CCC4)n[nH]2)C1 (stereo unspecified) — lower, -6.75%
- CC(Cc1ccco1)NS(=O)(=O)N1CCCCCC1 (stereo unspecified) — lower, -8.2%
- CC(CN1CCCC1=O)NC(=O)Nc1ccccc1Cn1cccn1 (stereo unspecified) — lower, -5.84%
- CC(CN1CCCC1=O)NC(=O)Nc1cccnc1-n1cccn1 (stereo unspecified) — higher, 35.4%
- Cc1cc(-n2c(C)cn(CN(C)C3CCS(=O)(=O)C3)c2=O)no1 (stereo unspecified) — lower, -14.6%
- COC(=O)[C@H](C)NC(=O)c1nc(C2CC2)n(-c2ccccc2Cl)n1 — lower, -11.3%
- CN(C)C(=O)CNC(=O)c1nc(C2CC2)n(-c2ccccc2Cl)n1 — lower, -13.7%
- Cc1ccc(C2CSCCN2C(=O)c2cccnc2)cc1 (stereo unspecified) — lower, -9.38%
- CC(O)CCN(C)C(=O)Nc1ccc(Br)cc1 (stereo unspecified) — higher, 26.9%
- CCC(C)(C)C(=O)Nc1ccc2ccn(CC(=O)NC)c2c1 — higher, -0.594%
- CNC(=O)Cn1ccc2ccc(NC(=O)C(C)C)cc21 — lower, -16.4%
- COc1ccc(-n2cc(CNC(=O)c3ccccn3)nn2)cc1 — lower, -8.76%
- CN(CC(O)C1CC1)C(=O)Nc1cc(F)cc(Br)c1 (stereo unspecified) — higher, 26.3%
- CNC(=O)Cn1ccc2ccc(NC(=O)NC(C)C(C)C)cc21 (stereo unspecified) — lower, -9.08%
- O=S1(=O)CCN(CCCc2ccc(Cl)cc2)CC1 — lower, -6.76%
- CNC(=O)C(C)CN(C)C(=O)Nc1cc(F)cc(Br)c1 (stereo unspecified) — higher, 1.41%
- Clc1ccc(C(CNCc2ccncc2)n2cccn2)cc1 (stereo unspecified) — higher, -1.54%
- CC(CN1CCCC1=O)NC(=O)NCc1ccccc1-n1cccn1 (stereo unspecified) — lower, -11.4%
- CC(=O)Nc1ccc(SCC(O)COCc2ccccc2)cc1 (stereo unspecified) — lower, -12.4%
- OCCN(Cc1ccno1)Cc1cc(Br)ccc1F — lower, -14.1%
- CCOCC1CCN(C(=O)C(c2c(F)cccc2F)N(C)C)CC1 (stereo unspecified) — higher, 0.534%
- O=C1CC[C@H](C(=O)N(CCc2ccccc2)C2CCOC2)N1 (stereo partly specified) — higher, 24.8%
- OCCOCCN1CCCC1c1cccc(Cl)c1 (stereo unspecified) — higher, -3.17%
- CC(NC1(CNS(=O)(=O)N(C)C)CCCC1)c1ccccc1 (stereo unspecified) — lower, -13.2%
- CC(SCCC(=O)NC(N)=O)c1ccccc1F (stereo unspecified) — lower, -7.35%
- CC(SCCC(=O)NC(N)=O)c1ccc(F)cc1F (stereo unspecified) — lower, -14.8%
- CCCC1CCCN(C(=O)CNC(=O)c2ccoc2C)CC1 (stereo unspecified) — lower, -18.9%
- CC(C)c1noc(CCC(=O)NCC(c2ccco2)N2CCCC2)n1 (stereo unspecified) — lower, -7.17%
- Cc1ccc(-c2nnc(NC(=O)c3ccn(C)c(=O)c3)[nH]2)s1 — lower, -19.1%
- CC(=O)N1Cc2ccccc2C[C@H]1C(=O)N(C)CCc1ccccn1 — higher, 19.3%
- O=C(C1CCS(=O)(=O)C1)N1CCC(=Cc2cccc(F)c2)CC1 (stereo unspecified) — lower, -9.56%
- CCC(C)(O)CNC(=O)Nc1ccc(C)cc1Br (stereo unspecified) — lower, -5.82%
- N#Cc1cccc(CS(=O)(=O)NC(Cc2ccccc2)C(N)=O)c1 (stereo unspecified) — lower, -13.1%
- CCn1cc(C(=O)N(C)Cc2c(F)cccc2Cl)cn1 — higher, -2.9%
- Cc1nc(-c2ccc(S(=O)(=O)N3CCSC3)cc2)co1 — lower, -10.2%
- COc1ccc(S(=O)(=O)NC(=O)c2cscn2)cc1C — lower, -13.6%
- CN1CCCC(N(C)C(=O)c2ccc(NC(=O)c3cc[nH]n3)cc2)C1 (stereo unspecified) — higher, -0.159%
- CC(CNC(=O)CCc1ccccn1)c1ccsc1 (stereo unspecified) — lower, -16.6%
- Cc1ccc(C(=O)N2CCOCC2)cc1NCc1ccsc1 — lower, -12.3%
- Cc1ccc(C2CN(C(=O)NCc3nnc4ccccn34)CCO2)o1 (stereo unspecified) — lower, -10.6%
- CCN1CCc2cc(-c3cncn3CCNC3CCS(=O)(=O)C3)ccc21 (stereo unspecified) — lower, -5.23%
- NC[C@H]1CC[C@H](c2c(C(N)=O)sc3ccccc32)CC1 — lower, -3.54%
- CC(C)(C)C(=O)NC(c1nccs1)C1CCN(CC2CCCCC2)CC1 (stereo unspecified) — higher, 33.7%
